Marks after values point to notes of the source that are not given here.
Key:
Type in all cases: in vivo, Female juvenile domestic swine
[1] = test system: acute regional myocardial ischemia and reperfusion (LAD occlusion); test: Hemodynamic assessment (rate pressure product) in swine LAD ischemia-reperfusion with Trans Guide wire Therapy; conditions: for rate pressure product (RPP), Pre-sacrifice: after 2 h reperfusion, chloramphenicol 10 mg TGT plus 40 mg/Kg IV just prior to reperfusion, p=0.02 vs saline
Method: (§1) Methods: Female juvenile pigs (n=14) were used. All animals received 250 mg of aspirin and 100 U/Kg of heparin IV. Tying the mid Left Anterior Descending Artery (“LAD”) after distal TGT (Trans Guide wire Therapy) wire placement induced acute myocardial ischemia. The TGT system consisted of a 0.014 inch nitinol torquable guide wire and removable stopcock. The distal 30 mm tip was flexible and radio-opaque. Immediately proximal to the tip were delivery holes to facilitate TGT delivery. TGT was delivered after 30 minutes of ischemia. The distal coronary vascular bed was visualized by injection with radiographic contrast (n=2) and Evans blue (n=2). […] Suture removal allowed 2 hours of reperfusion prior to sacrifice. Hemodynamics expressed as the heart rate blood pressure product (RPP) was assessed continuously. Echocardiographic LV ejection fraction (LVEF) was measured at baseline, end of ischemia (pre-TGT) and pre-sacrifice. Device success was defined as successful TGT delivery.
Animal Preparation: Female juvenile domestic swine, weight 30-50 kg, were studied. […] Anaesthesia was induced with an intramuscular injection of ketamine (20 mg/kg) followed by inhaled isoflurane (0.5-2.0%). After general anaesthesia the femoral artery was cannulated. A pulmonary artery cannula was positioned via the right internal jugular vein. All animals received 250 mg of IV aspirin and 100 U/Kg units of heparin intravenously to achieve an ACT above 250 s.
(§2) Interventional Coronary and Surgical Procedures: A 6F Hockey stick guide catheter cannulated the left main coronary artery. The TGT wire, flushed with heparin, was positioned in the distal left anterior descending (LAD) artery. After a midline sternotomy acute regional myocardial ischemia was induced by occluding the mid portion of the LAD with a surgical suture. Fluoroscopy ensured the suture was above the infusion ports of the TGT wire with distal TIMI 0 flow. Lidocaine was given as a bolus and infusion at the onset of ischemia and for the remainder of the experiment. TGT injection was performed at the end of a 30 minute ischemic period after which the suture was removed to allow reperfusion. Restoration of TIMI 3 flow was documented by cine-angiography. Animals were sacrificed after 2 hours of reperfusion and the hearts were harvested for immunohistochemistry.
Hemodynamic Assessment: There was continuous measurement of hemodynamic parameters. Cardiac output was measured immediately before and after ischemia and pre-sacrifice. Hemodynamic stability and contractility were supported medically by IV dopamine, and epinephrine to maintain MAP above 50 mmg. Boluses of atropine (1 mg) and lidocaine (100 mg) were given as appropriate for treatment of arrhythmias. […] Each administration of these drugs was recorded as 1 arbitrary unit. […]

[2] = test system: acute regional myocardial ischemia and reperfusion (LAD occlusion); test: Supportive drug therapy required during ischemia-reperfusion (arbitrary units); conditions: chloramphenicol 10 mg TGT plus 40 mg/Kg IV
Method: as §1, §2
Hemodynamic Assessment: There was continuous measurement of hemodynamic parameters. Cardiac output was measured immediately before and after ischemia and pre-sacrifice. Hemodynamic stability and contractility were supported medically by IV dopamine, and epinephrine to maintain MAP above 50 mmg. Boluses of atropine (1 mg) and lidocaine (100 mg) were given as appropriate for treatment of arrhythmias. IV calcium and bicarbonate were given in appropriate doses during cardiopulmonary resuscitation. Each administration of these drugs was recorded as 1 arbitrary unit.
The latter was prepared as 10 mg in 0.5 cc of saline for TGT in addition to 40 mg/Kg IV. Injections were performed just prior to reperfusion.

[3] = test system: acute regional myocardial ischemia and reperfusion (LAD occlusion); test: Echocardiographic LV ejection fraction
Caspase 3 = test: Western blotting of infarct border area: Caspase 3; conditions: infarct border area after 2 h reperfusion, p=0.007 vs saline
Text: as §2, with “immunohistochemistry. Western Blotting: After cardiac harvest the infarct border area was immediately frozen in liquid nitrogen. […] Supernatant protein concentration was measured using a BCA assay kit (Pierce Laboratories). […] After 3 TBST washings the immunocomplexes were developed using an enhanced HPO/luminol chemiluminescence reaction, and recorded photographically (Hyper film ECL; Amersham) by 10 s to 3 min exposure. […] Quantification was performed using scanning densitometry with image J software.” for “immunohistochemistry.”

apoptosis = test: TUNEL staining for apoptosis in heart tissue sections; conditions: heart tissue after 2 h reperfusion; non-discriminatory vs saline
[4] = test system: acute regional myocardial ischemia and reperfusion (LAD occlusion); test: Survival of the reperfusion period; conditions: of 5 chloramphenicol TGT treated animals, to sacrifice at 2 h
Method: as §1
Interventional Coronary and Surgical Procedures: A 6F Hockey stick guide catheter cannulated the left main coronary artery. The TGT wire, flushed with heparin, was positioned in the distal left anterior descending (LAD) artery. After a midline sternotomy acute regional myocardial ischemia was induced by occluding the mid portion of the LAD with a surgical suture. […]

[5] = each administration recorded as 1 arbitrary unit, group sum

SMILES: O=C(N[C@H](CO)[C@H](O)c1ccc([N+](=O)[O-])cc1)C(Cl)Cl [chloramphenicol]
- rate pressure product (RPP), Pre-sacrifice [1]: 3720.0 (+/−510.2)
- rate pressure product (RPP), Pre-sacrifice ([1]; listed as Chloramphenicol): 3720.0 +/− 510.2*
- rate pressure product (RPP), Baseline ([1]; baseline, before ischemia and before TGT, chloramphenicol TGT group (n=5)): 3980.8 +/− 594.5
- rate pressure product (RPP), End of ischemia ([1]; end of 30 min ischemia, pre-TGT, chloramphenicol TGT group (n=5)): 2969.5 +/− 687.2
- supportive therapy: Atropine [2, 5]: 2.5 arbitrary units
- supportive therapy: Bicarbonate [2, 5]: 1 arbitrary units
- supportive therapy: Dopamine [2, 5]: 1 arbitrary units
- supportive therapy: Epinephrine [2, 5]: 1 arbitrary units
- supportive therapy: Lidocaine [2, 5]: 4.5 arbitrary units
- supportive therapy: calcium [2, 5]: 0 arbitrary units
- supportive therapy / intravenous inotrope support, mean ([2]; mean (+/-), p=0.028 vs saline): 1.67 (+/−1.6) arbitrary units
- supportive therapy: Total ([2]; sum over all support drugs): 10 arbitrary units
- LV ejection fraction, end of ischemia ([3]; after 30 minute ischemia, pre-TGT, chloramphenicol TGT group): 27.3%+/−3.8
- LV ejection fraction, pre-sacrifice (after reperfusion) ([3]; after 2 h reperfusion, chloramphenicol 10 mg TGT plus 40 mg/Kg IV, p<0.001 vs end of ischemia): 43.3%+/−11.4
- caspase-3 band intensity by densitometry (Caspase 3): 346±110
- TUNEL staining (apoptosis): weakly positive
- animals that survived the period of reperfusion [4]: 5

Reference: patent US20080091140A1, “Cardiac Reperfusion Methods and Devices” (priority 2006, published 2008)
